# Assay results as given in US12059413B2, “Methods of inhibiting viruses using compositions targeting TSG101-ubiquitin interaction” (The Research Foundation for the State University of New York, priority 2016, dated 2024).
# Legend:
# [1] = target: T1, Tsg101 (Homo sapiens, UniProt Q99816); assay: NWU screening / in vitro binding assay; settings: Esomeprazole and tenatoprazole compared
# T1 sequence (Q99816 2-145 limits assumed): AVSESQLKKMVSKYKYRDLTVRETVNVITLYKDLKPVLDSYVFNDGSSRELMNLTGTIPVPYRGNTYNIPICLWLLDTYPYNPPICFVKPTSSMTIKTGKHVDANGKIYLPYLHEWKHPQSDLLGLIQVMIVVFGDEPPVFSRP
# Excerpt: Pantoprazole, Lansoprazole/Dexlansoprazole (dexlansoprazole is the active enantiomer of the racemic lansoprazole), and Rabeprazole were in the NWU screen but were not considered hits.
# [2] = test system: 293T cells; assay: Metabolic activity, WST-1 assay, 293T cells; format: cell-based; settings: Homo sapiens, HEK-293T; 293T, 24 hr in N16, WST-1; read-out: IC50 (95% confidence levels), metabolic activity
# Protocol: (§1) FIG. 20A-C. N16 inhibition is virus-specific. A) N16 IC50 for Hela and 293T cells. […] Values were calculated by measuring metabolic activity (WST-1 Assay, Roche Applied Science) after cells were grown for 24 hr in N16. Data points represent the mean of 2 assays, 3 time points each for each cell line. […] Values in the absence or presence of N16 (50 uM) were 12% and 13%, respectively). C) N16 effect on EGF-stimulated EFGR degradation. Cells maintained for 24 hr in media containing DMSO alone or DMSO and N16 were stimulated with EGF ligand for a 90 min period and then assessed for EGFR steady-state level by Western analysis. EGFR levels for unstimulated and stimulated sample pairs are shown. A) n=2; B) n=2; C) n=2.
# FIG. 27A-C. Effect of N-Acetyl Cysteine (NAC) on N16-mediated inhibition of VLP production and intracellular Gag accumulation. […] A concentration of 3 mM NAC was therefore used to test the effect of the antioxidative reagent on the N16 inhibitory effect. N16 (0, 12, 25, 50, 75, and 100 uM) was added 8.5 hr prior to transfection with pNL4-3ΔEnv. Cells were harvested 16 hr later. […] C) Quantitative analysis. n=2.
# (§2) Cells were grown in 96-well trays for 24 hr with increasing levels of drug, metabolic activity was measured using WST-1colorimetric assay (Roche), and IC50 values were calculated (Prism 6, Graph Pad Software Inc.).
# [3] = test system: Hela cells; assay: Metabolic activity, WST-1 assay, Hela cells; format: cell-based; settings: Homo sapiens, 24 hr in N16, WST-1, read-out: IC50 (95% confidence levels), metabolic activity
# Protocol: as §1, §2
structure (smiles),measurement,setting,value
"COc1ccc2nc([S@@+]([O-])Cc3ncc(C)c(OC)c3C)[nH]c2c1 [F15, esomeprazole]",binding in the in vitro binding assay,[1],comparable binding
"COc1ccc2[nH]c([S+]([O-])Cc3ncc(C)c(OC)c3C)nc2n1 (stereo not drawn) [N16, tenatoprazole]",IC50,[2],99.8 to 139 µM
same,IC50,[3],156 to 205 µM
